From PMC10419307, “The Effect of Metal Ions (Fe, Co, Ni, and Cu) on the Molecular-Structural, Protein Binding, and Cytotoxic Properties of Metal Pyridoxal-Thiosemicarbazone Complexes” (International Journal of Molecular Sciences, 2023)
Read-outs that look alike come from different tables or passages of the source.

Key:
A2780 ovarian cancer [1] = test: MTT viability assay; type: cell-based, Human; settings: 72 h
Experimental: (§1) Human cell lines (A375 melanoma, MCF-7 breast cancer, HCT116 colorectal carcinoma, A2780 ovarian cancer, and MRC5 lung fibroblasts) were purchased from American Type Culture Collection (Rockville, MD, USA).
(§2) The A2780 cells were cultivated in DMEM, while all of the other cell lines were cultivated in the HEPES-buffered RPMI-1640 medium. The cell culture mediums were supplemented with penicillin (100 units/mL), streptomycin (100 μg/mL), and 10% inactivated FBS. All of the cells were cultivated at 37 °C in a humidified atmosphere with 5% CO2.
(§3) The cells were seeded overnight in 96-well plates: A2780 and MRC-5 8 × 10^3 cells/well, HCT 116 6 × 10^3 cells/well, A375 5 × 10^3 cells/well, and MCF-7 at 10 × 10^3 cells/well [58]. All of the cells were treated with the following concentrations of investigated compounds: 100, 50, 25, 12.5, 6.25, 3.125, and 1.56 μM, except for the A2780 cells, which were treated with the following concentrations for the Cu compound only: 25, 12.5, 6.25, 3.125, 1.56, 0.78, and 0.39 μM. After 72 h of treatment, viability assays were conducted.

A375 melanoma [2] = test: MTT viability assay; type: cell-based, Human; settings: 72 h
Experimental: as §1, §2, §3

[3] = test system: HCT116 colorectal carcinoma; test: MTT viability assay; type: cell-based, Human; settings: 72 h
Experimental: as §1, §2, §3

MCF-7 breast cancer [4] = test: MTT viability assay; type: cell-based, Human; settings: MCF-7, MTT, 72 h
Experimental: as §1, §2, §3

MRC5 lung fibroblasts [5] = test: MTT viability assay; type: cell-based, Human; settings: 72 h
Experimental: as §1, §2, §3

[6] = molecular target: T1, bovine serum albumin (BSA) (Bos taurus, UniProt P02769); test: Spectrofluorometric titration, binding to BSA; settings: for ΔHb / ΔSb: van't Hoff, 300-310 K
T1 construct: purchased Merck
Experimental: (§4) The binding affinities of complexes towards bovine serum albumin (BSA) and human serum albumin (HSA) were analyzed using the spectrofluorometric measurements on the Cary Eclipse MY2048CH03 instrument. The scan rate was set to 600 nm min^−1, with both slits being 5 nm. The excitation wavelength for BSA was set to 295 nm and for HSA to 280 nm. These wavelengths are characteristic of the tryptophan residues in the active pocket of proteins. The spectra were recorded from 310 to 500 nm. The concentration of both proteins was held constant at 5 × 10^−6 M, and prepared in 1 M phosphate buffer saline of pH 7.4.
(§5) The measurements were repeated at three temperatures (27, 32, and 37 °C) to mimic the body temperature and to allow for the calculation of the thermodynamic parameters of binding using the vant’t Hoff equation (Equation (2)):(2) lnKb=−ΔHb/RT+ΔSb/R where ΔHb, ΔSb, and ΔGb represent the change in the enthalpy, entropy, and free energy of the binding process, respectively.

A2780 ovarian cancer [7] = test: CV viability assay; type: cell-based, Human; settings: 72 h
Experimental: as §1, §2, §3

A375 melanoma [8] = test: CV viability assay; type: cell-based, Human; settings: 72 h
Experimental: as §1, §2, §3

[9] = test system: HCT116 colorectal carcinoma; test: CV viability assay; type: cell-based, Human; settings: 72 h
Experimental: as §1, §2, §3

MCF-7 breast cancer [10] = test: CV viability assay; type: cell-based, Human; settings: MCF-7, CV, 72 h
Experimental: as §1, §2, §3

MRC5 lung fibroblasts [11] = test: CV viability assay; type: cell-based, Human; settings: 72 h
Experimental: as §1, §2, §3

BSA = molecular target: T2, BSA (Bos taurus, UniProt P02769); test: Competitive spectrofluorometric measurements with warfarin; type: binding, bovine; settings: for number of binding sites (n), competitive measurements with warfarin: BSA with equimolar warfarin; for BSA subdomain the complex binds to: concluded from competition with warfarin
T2 construct: purchased Merck
Experimental: as §4
The competitive measurements were performed in the presence of warfarin, a site-specific marker for BSA subdomain IIA [33]. The equimolar concentrations of BSA and warfarin were prepared (5 × 10^−6 M), and after 30 min of incubation, the titrations using the solutions of the investigated complexes were conducted. The final concentrations of the added complexes were the same as for the previous experiments.

[12] = molecular target: human serum albumin (HSA) (Homo sapiens, UniProt P02768); test: Spectrofluorometric titration, binding to HSA; settings: for ΔHb / ΔSb: van't Hoff, 300-310 K
Experimental: as §4, §5

MCF-7 breast cancer [13] = test system: MCF-7 breast cancer; design: method as in PMID 36364539; settings: MCF-7, MTT test; cited from earlier work

Chain of human serum albumin (HSA) (P02768 25-609): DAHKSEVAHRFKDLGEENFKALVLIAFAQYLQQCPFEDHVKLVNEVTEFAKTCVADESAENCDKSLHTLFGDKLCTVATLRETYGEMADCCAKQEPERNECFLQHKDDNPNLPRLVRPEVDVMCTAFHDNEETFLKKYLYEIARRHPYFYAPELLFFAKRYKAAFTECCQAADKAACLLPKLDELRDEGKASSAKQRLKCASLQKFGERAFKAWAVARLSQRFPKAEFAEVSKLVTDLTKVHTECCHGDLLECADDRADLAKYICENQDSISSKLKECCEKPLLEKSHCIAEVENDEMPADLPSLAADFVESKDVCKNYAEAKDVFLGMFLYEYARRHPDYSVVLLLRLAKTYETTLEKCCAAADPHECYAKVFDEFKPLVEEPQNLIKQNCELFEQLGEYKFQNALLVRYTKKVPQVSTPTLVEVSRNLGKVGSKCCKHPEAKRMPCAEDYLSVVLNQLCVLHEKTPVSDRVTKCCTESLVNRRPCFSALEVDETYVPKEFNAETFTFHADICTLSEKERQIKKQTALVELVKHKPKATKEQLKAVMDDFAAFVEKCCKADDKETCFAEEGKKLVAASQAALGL
T1 sequence (P02769 25-607): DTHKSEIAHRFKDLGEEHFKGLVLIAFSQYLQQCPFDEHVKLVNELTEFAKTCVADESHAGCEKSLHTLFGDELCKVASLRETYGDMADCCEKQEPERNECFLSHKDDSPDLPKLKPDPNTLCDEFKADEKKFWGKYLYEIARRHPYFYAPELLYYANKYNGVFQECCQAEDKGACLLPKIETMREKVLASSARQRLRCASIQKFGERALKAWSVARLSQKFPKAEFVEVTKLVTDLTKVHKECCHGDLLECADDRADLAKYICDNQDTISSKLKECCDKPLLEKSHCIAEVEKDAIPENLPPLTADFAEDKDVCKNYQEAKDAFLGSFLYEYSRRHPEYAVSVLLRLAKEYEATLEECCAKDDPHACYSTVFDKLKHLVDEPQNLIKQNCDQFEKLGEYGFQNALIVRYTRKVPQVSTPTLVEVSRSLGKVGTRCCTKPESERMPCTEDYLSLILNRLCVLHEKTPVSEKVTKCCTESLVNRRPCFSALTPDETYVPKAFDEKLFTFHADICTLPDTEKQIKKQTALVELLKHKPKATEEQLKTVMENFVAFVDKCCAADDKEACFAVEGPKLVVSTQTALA
T2 sequence (P02769 25-607): as above

Row | SMILES | IC50 (A2780 ovarian cancer [1]) [µM] | IC50 (A375 melanoma [2]) [µM] | IC50 [3] [µM] | IC50 (MCF-7 breast cancer [4]) [µM] | IC50 (MRC5 lung fibroblasts [5]) [µM] | n (number of binding places) ([6]; T 300 K) | ΔGb ([6]; T 300 K) [kcal/mol] | n (number of binding places) ([6]; T 305 K) | ΔGb ([6]; T 305 K) [kcal/mol] | n (number of binding places) ([6]; T 310 K) | ΔGb ([6]; T 310 K) [kcal/mol] | ΔHb [6] [kcal/mol] | IC50 (A2780 ovarian cancer [7]) [µM] | IC50 (A375 melanoma [8]) [µM] | IC50 [9] [µM] | IC50 (MCF-7 breast cancer [10]) [µM] | IC50 (MRC5 lung fibroblasts [11]) [µM] | number of binding sites (n), competitive measurements with warfarin (BSA) | BSA subdomain the complex binds to (BSA) | n (number of binding places) ([12]; T 300 K) | other results
1 | Cc1[nH+]cc(CO)c(C=NN=C(N)[S-])c1[O-].Cc1[nH+]cc(CO)c(C=NN=C(N)[S-])c1[O-].O.[Cl-].[Co+3] [Co-PLTSC] | > 100 | > 100 | > 100 | > 100 | > 100 | 1.1 | -7.34 | 1.1 | -7.74 | 1.1 | -8.15 | 16.8 | > 100 | > 100 | > 100 | > 100 | > 100 | 1.01 | subdomains IIA and IIB | 1.0 | Binding constant (Kb), competitive measurements with warfarin (BSA; BSA with equimolar warfarin (5 × 10^−6 M), 30 min incubation): 52500 M⁻¹; reduction percentages of the binding constants (BSA; BSA with warfarin vs without warfarin): 10%; ΔGb ([12]; T 300 K): -6.74 kcal/mol; n (number of binding places) ([12]; T 305 K): 1.0; ΔGb ([12]; T 305 K): -6.91 kcal/mol; n (number of binding places) ([12]; T 310 K): 1.0; ΔGb ([12]; T 310 K): -7.05 kcal/mol; ΔHb [12]: 3.04 kcal/mol; ΔSb [12]: 136 J mol^−1 K^−1
2 | Cc1[nH+]cc(CO)c(C=NNC(N)=S)c1[O-].O.[Cl-].[Cl-].[Cl-].[Fe+3] [Fe-PLTSC, [Fe(PLTSC)Cl2(H2O)]Cl] | 86.3 ± 13.1 | > 100 | > 100 | > 100 | > 100 | 1.1 | -7.03 | 1.1 | -7.22 | 1.1 | -7.39 | 3.7 | 93.5 ± 9.2 | > 100 | > 100 | > 100 | > 100 | 1.10 | subdomain IIIA | 1.2 | ΔSb [6]: 149 J mol^−1 K^−1; ΔGb ([12]; T 300 K): -8.08 kcal/mol; n (number of binding places) ([12]; T 305 K): 1.2; ΔGb ([12]; T 305 K): -8.46 kcal/mol; n (number of binding places) ([12]; T 310 K): 1.1; ΔGb ([12]; T 310 K): -8.82 kcal/mol; ΔHb [12]: 13.9 kcal/mol; ΔSb [12]: 307 J mol^−1 K^−1
3 | Cc1[nH+]cc(CO)c(C=NNC(N)=S)c1[O-].Cc1[nH+]cc(CO)c(C=NNC(N)=S)c1[O-].O.O=[N+]([O-])[O-].O=[N+]([O-])[O-].[Ni+2] [Ni-PLTSC, Ni-pyridoxal-thiosemicarbazone] | > 100 | > 100 | > 100 | > 100 | > 100 | 1.2 | -9.97 | 1.2 | -9.8 | 1.2 | -9.66 | -19 | > 100 | > 100 | > 100 | > 100 | > 100 | 1.30 | subdomain IIIA | 1.2 | ΔSb [6]: −126 J mol^−1 K^−1; ΔGb ([12]; T 300 K): -8.87 kcal/mol; n (number of binding places) ([12]; T 305 K): 1.2; ΔGb ([12]; T 305 K): -8.89 kcal/mol; n (number of binding places) ([12]; T 310 K): 1.2; ΔGb ([12]; T 310 K): -8.89 kcal/mol; ΔHb [12]: -7.5 kcal/mol; ΔSb [12]: 15.5 J mol^−1 K^−1
4 | N.N.[Cl][Pt][Cl] [cisplatin] | – | – | – | – | – | – | – | – | – | – | – | – | – | – | – | – | – | – | – | – | IC50 (MCF-7 breast cancer [13]): 33.6 ± 4.8 µM
